# According to US20090220562A1, “Osteogenic and anti-adipogenic oxysterols” (priority 2005, published 2009):
# Tests used:
# [1] = system: ERK1 and ERK2; assay: Western blot for native and phosphorylated ERK in M2 cells; type: cell-based, mouse; conditions: 5 μM 20S oxysterol for 1, 4, or 8 hours
# Protocol: Western blot analysis—After treatments, cells were lysed in lysis buffer, protein concentrations determined using the Bio-Rad protein assay (Hercules, Calif. U.S.A.), and SDS-PAGE performed as previously described. Probing for native and phosphorylated ERKs was performed as previously reported.
# (A) M2 cells at confluence were pretreated for four hours with RPMI containing 1% FBS, followed by treatment with control vehicle or 5 μM 20S oxysterol for 1, 4, or 8 hours. Next total cell extracts were prepared and analyzed for levels of native or phosphorylated ERK (pERK) using specific antibodies as previously described. Data from a representative of four experiments are shown, each treatment shown in duplicate samples. (B) M2 cells at confluence were pretreated for 2 hours with control vehicle (C) or 20 μM PD98059 (PD) in osteogenic medium as previously described. Next, a combination of 22R and 20S oxysterols (RS, 5 μM each) were added to appropriate wells as indicated. After 10 days of incubation, matrix mineralization was quantified by the ^45Ca incorporation assay as previously described. […] (C) M2 cells at confluence were pretreated for 2 hours with 20 µM PD98059 (PD) in RPMI containing 5% FBS. […] After 10 days, adipocytes were visualized by oil Red O staining and quantified by light microscopy as previously described. […]
# [2] = system: Runx2; assay: Runx2 DNA binding and protein expression in M2-10B4 cells; type: cell-based, mouse; conditions: doses of 5-15 μM
# Protocol: Method: Marrow stromal cells (M2-10B4 (M2)) were treated with doses of 5-15 μM 20S-hydroxycholestrol.
# Method: Marrow stromal cells (M2-10B4 (M2)) were treated with doses of 5-15 μM20S-hydroxycholestrol. Groups of cells were pre-treated with 22S or 22R.
# Method: Marrow stromal cells (M2-10B4 (M2)) were pretreated with Wnt signaling inhibitor, DKK-1 (1 μg/ml), then treated with 20S-hydroxycholestrol and 22(8)-hydroxycholesterol.
smiles,measurement,setting,value
CC(C)CCC[C@](C)(O)[C@H]1CC[C@H]2[C@@H]3CC=C4C[C@@H](O)CC[C@]4(C)[C@H]3CC[C@@]21C [20S-hydroxycholesterol],activation of ERK1 and ERK2,[1],sustained activation
same,Runx2 DNA binding and protein expression,[2],induction
